# From article PMC6271143, “Novel Triphenylantimony(V) and Triphenylbismuth(V) Complexes with Benzoic Acid Derivatives: Structural Characterization, in Vitro Antileishmanial and Antibacterial Activities and Cytotoxicity against Macrophages” (Molecules, 2014)
# Where two headings read alike, the source gives them in different places.
# Columns and labels:
# [1] = system: Staphyloccocus aureus (ATCC 6538); test: Minimum inhibitory concentration, broth dilution (NCCLS M7-A6), S. aureus; format: cell-based, Staphylococcus aureus; conditions: for MIC: ATCC 6538, 100% inhibition of growth, visual, 24 h at 37 °C; for d SI (selective index): ratio between MIC in murine macrophages and MIC in Staphylococcus aereus: as printed in footnote d
# Method: (§1) Antimicrobial activity tests were performed in a quantitative way by determining the minimum inhibitory concentration (MIC) by the standard method for in vitro anti-bacterial susceptibility testing proposed by the National Committee for Clinical Laboratory Standards [NCCLS M7-A6] [56]. Sthaphyloccocus aureus [ATCC6538] and Pseudomonas aeruginosa [ATCC27853] stored in Müller–Hilton broth were sub-cultured for testing in the same medium and incubated for 24 h, respectively, at 37 °C. The bacterial cells of the two strains were suspended in Müller-Hilton broth to produce inocula of 10^8 CFU mL^–1, determined by a spectrophotometric method. Serial dilutions of the compounds, previously dissolved in DMSO, were prepared in 10 test tubes with Müller–Hilton broth to final concentrations from 100 μg mL^–1 to 0.20 μg mL^–1 for P. aeruginosa and S. aureus. An old inoculum of each strain was added to the tubes to obtain final concentrations of 10^5 CFU. […] Tests using tetracycline as positive control and DMSO as negative control were carried out in parallel. All tests were performed in triplicate with full agreement between the results.
# [2] = system: Pseudomonas aeruginosa (ATCC 27853); design: method as in doi:10.1016/j.molstruc.2010.11.048; conditions: cited from earlier work
# [3] = system: L. infantum promastigotes; test: Antileishmanial activity assay (growth inhibition, absorbance at 600 nm) against L. infantum promastigotes; format: cell-based, Leishmania infantum (strain MCAN/BR/2002/BH400); conditions: for IC50: promastigotes, IC50/72 h (source says 48 h), non-linear regression, read-out: IC50 (μM) ± SEM, L. infantum strain
# Method: (§2) The four complexes, their metal salts and their respective free ligands were primarily tested for their activity to investigate whether they inhibit the growth of L. amazonensis and L. infantum promastigotes. The growth rate of the promastigotes incubated for […] in the presence of test compounds was compared to those of nontreated negative control and to those treated with the standard antileishmanial antimony(III) drug tartar emetic.
# (§3) Leishmania amazonensis (strain MHOM/BR/1989/BA199) and Leishmania infantum (strain MCAN/BR/2002/BH400) promastigotes were maintained in minimum essential culture medium (α-MEM) (Gibco, Invitrogen, Grand Island, NY, USA) supplemented with 10% (v/v) heat inactivated fetal calf serum (Cultilab, Campinas, SP, Brazil), […] kanamycin, […] ampicillin, 2 mM L-glutamine, […] hemin, 5 mM biopterin, (Sigma-Aldrich), pH 7.0 and incubated at 25 °C [52].
# (§4) Complexes 1-4 were evaluated in vitro for their activity against two wild type Leishmania parasites. Log-phase L. amazonensis and L. infantum promastigotes (1 × 10^6 parasites/mL) were seeded in 24-wells cell culture plates with 1.5 mL of α-MEM, incubated under shaking at 25 °C during 72 h in the presence of several concentrations of complex 1–4, free ligands HL1-2, and metal precursors M1-2. Non-treated parasites in the presence of DMSO solution and absence of any test compound were established for growth comparison. Stock solutions of the ligands, 2-acetylsalicylic acid and 3-acetoxybenzoic acid, their metal complexes 1–4, and metal salts, Ph3SbCl2 and Ph3BiCO3 were dissolved in DMSO and diluted in α-MEM cell culture medium to obtain the range of tested concentrations. […] For drug susceptibility assay, Leishmania growth curves were constructed by measuring absorbance at 600 nm. The antileishmanial activity is expressed as IC50/72 h, which is the concentration that reduces cell growth by 50% compared to untreated control (relative growth). All experiments were done at least three times as independent experiments performed in triplicate.
# (§5) The IC50 and CC50 values were calculated by nonlinear regression using the software GraphPad Prism 5.0. The acceptable level of significance was 95% (p < 0.05).
# [4] = system: L. amazonensis promastigotes; test: Antileishmanial activity assay (growth inhibition, absorbance at 600 nm) against L. amazonensis promastigotes; format: cell-based, Leishmania amazonensis (strain MHOM/BR/1989/BA199); conditions: for IC50: promastigotes, IC50/72 h (source says 48 h), non-linear regression, read-out: IC50 (μM) ± SEM, L. amazonensis strain
# Method: as §2, §3, §4, §5
# [5] = system: Pseudomonas aeruginosa (ATCC 27853); test: Minimum inhibitory concentration, broth dilution (NCCLS M7-A6), P. aeruginosa; format: cell-based; conditions: visual, 24 h at 37 °C
# Method: as §1
# [6] = system: mouse peritoneal macrophages; test: Cytotoxicity (MTT assay) against mouse peritoneal macrophages; format: cell-based, mouse (Balb/c); conditions: 24 h, murine peritoneal macrophages, read-out: CC50: concentration that is cytotoxic against 50% of macrophages
# Method: (§6) The in vitro cytotoxicity of the complexes, along their metal salts and ligands, was evaluated by means of the MTT assays towards mouse peritoneal macrophages. The results of in vitro cytotoxic activity are expressed as CC50, which is the concentration of compound that inhibits the viability of macrophages by 50% as compared to untreated macrophages control.
# (§7) The concentration of studied compounds that is cytotoxic to 50% of the macrophages (CC50) was determined by the 3-(4,5-dimethylthiazol-2-yl)-2,5 diphenyltetrazolium bromide (MTT) method according to Mosmann. Briefly, peritoneal macrophages were obtained from Balb/c mice after intraperitoneal injection of 2 mL of 3% sodium thioglycolate medium. Mice were euthanized after 72 h, just before removal of peritoneal macrophages by washing with cold RPMI 1640 medium. The procedure was approved by the Internal Ethics Committee in Animal Experimentation (CEUA) of the Federal University of Uberlândia (Protocol 069/2013). After washing, the cell suspension (4.0 × 10^6/mL) was seeded (0.1 mL) in 96-well flat bottom plates. Macrophages were allowed to adhere for 2 h and non-adherent cells were removed by washing with RPMI. Then, the compounds were added to the wells at different concentrations and the cells were further cultured in RPMI-1640 supplemented with 10% FBS for 24 h at 37 °C in a humidified 5% CO2 atmosphere. Thereafter, the medium was replaced with fresh RPMI containing 0.5 mg/mL of MTT and the plates were incubated for additional 4 h. Supernatants were aspirated and the formazan crystals formed were dissolved in 100 μL of DMSO. After 15 min of incubation at room temperature, absorbance of solubilized MTT formazan product was spectrophotometrically measured at 570 nm.
# as §5
# [7] = system: L. amazonensis promastigotes; design: method as in PMID 23099618; conditions: read-out: IC50 (μM) ± SEM, L. amazonensis strain; cited from earlier work
# Leishmania promastigotes = system: Leishmania promastigotes; design: method as in PMID 19633606; conditions: cited from earlier work
# [8] = Antileishmanial activity assay (growth inhibition, absorbance at 600 nm) against L. infantum promastigotes; format: cell-based, Leishmania infantum (strain MCAN/BR/2002/BH400); conditions: Balb/c, mouse (macrophages); Leishmania infantum (promastigotes), pH 7; CC50 macrophages / IC50 L. infantum; read-out: a SI (selective index): ratio between CC50 in murine macrophages and IC50 in L. infantum
# Method: as §2, §3, §4, §5
# [9] = Antileishmanial activity assay (growth inhibition, absorbance at 600 nm) against L. amazonensis promastigotes; format: cell-based, Leishmania amazonensis (strain MHOM/BR/1989/BA199); conditions: Balb/c, mouse (macrophages); Leishmania amazonensis (promastigotes), pH 7; CC50 macrophages / IC50 L. amazonensis; read-out: b SI (selective index): ratio between CC50 in murine macrophages and IC50 in L. amazonensis (WT)
# Method: as §2, §3, §4, §5
# [10] = Cytotoxicity (MTT assay) against mouse peritoneal macrophages; format: cell-based, mouse (Balb/c); conditions: Balb/c, mouse, mouse peritoneal macrophages, murine peritoneal macrophages, read-out: CC50: concentration that is cytotoxic against 50% of macrophages
# Method: as §6, §7, §5
# [11] = system: L. infantum promastigotes; test: Antileishmanial activity assay (growth inhibition, absorbance at 600 nm) against L. infantum promastigotes; format: cell-based, Leishmania infantum (strain MCAN/BR/2002/BH400); conditions: Leishmania infantum, IC50/72 h (source says 48 h), non-linear regression, read-out: IC50 (μM) ± SEM, L. infantum strain
# [12] = system: Pseudomonas aeruginosa (ATCC 27853); test: Minimum inhibitory concentration, broth dilution (NCCLS M7-A6), P. aeruginosa; format: cell-based; conditions: as printed in footnote c
# [13] = Staphylococcus aureus, ATCC6538
# [14] = Pseudomonas aeruginosa, ATCC27853, 100% inhibition of growth
Molecule,a SI (selective index): ratio between CC50 in murine macrophages and IC50 in L. infantum [3],IC50 [3] [µM],b SI (selective index): ratio between CC50 in murine macrophages and IC50 in L. amazonensis (WT) [4],IC50 [4] [µM],MIC [1] [µM],MIC ([5]; 100% inhibition of growth) [µM],CC50 [6] [µM],also measured
"CN(C)[C@@H]1C(O)=C(C(N)=O)C(=O)[C@@]2(O)C(O)=C3C(=O)c4c(O)cccc4[C@@](C)(O)[C@H]3C[C@@H]12 [Tetracycline, tetracycline]",,,,,,,,"MIC [1, 13]: 3.5 µM; MIC, P. aeruginosa [2]: >96.7 [48] μM"
"CC(=O)Oc1ccccc1C(=O)[O][Bi]([O]C(=O)c1ccccc1OC(C)=O)([c]1ccccc1)([c]1ccccc1)[c]1ccccc1 [Complex 3, Bis-(acetylsalicylato)triphenylbismuth(V)]",0.74,8.6 ± 1.36,0.75,8.5 ± 0.56,4.1,8.2,6.4 ± 0.5,
"O=C([O-])[C@H]([O-])[C@@H]([O-])C(=O)[O-].O=C([O-])[C@H]([O-])[C@@H]([O-])C(=O)[O-].[K+].[K+].[Sb+3].[Sb+3] [TA, potassium antimony tartrate]",,100 ± 3,,,,,,IC50 [7]: 83 ± 1 µM
meglumine antimoniate,,,,,,,,activity in the promastigotes model (Leishmania promastigotes): inactive
"CC(=O)Oc1ccccc1C(=O)[O][Sb]([O]C(=O)c1ccccc1OC(C)=O)([c]1ccccc1)([c]1ccccc1)[c]1ccccc1 [Complex 1, Bis-(acetylsalicylato)triphenylantimony(V)]",4.51,13.3 ± 0.74,2.0,30.7 ± 3.43,140.6,140.6,60.5 ± 3.4,
"O=C([O-])[O-].c1cc[c]([Bi+2]([c]2ccccc2)[c]2ccccc2)cc1 [Complex M2, triphenylbismuth carbonate]",10.6,1.1 ± 0.37,4.6,2.7 ± 0.34,24.5,48.9,12.1 ± 0.45,
"[Cl][Sb]([Cl])([c]1ccccc1)([c]1ccccc1)[c]1ccccc1 [Complex M1, triphenylantimony(V) dichloride]",1.7,13.2 ± 2.03,2.4,9.3 ± 0.26,235.8,235.8,22.7 ± 0.93,
"CC(=O)Oc1cccc(C(=O)[O][Bi]([O]C(=O)c2cccc(OC(C)=O)c2)([c]2ccccc2)([c]2ccccc2)[c]2ccccc2)c1 [Complex 4, Bis-(3-acetoxybenzoato)triphenylbismuth(V)]",<1,4 ± 0.39,<1,2.9 ± 0.17,4.1,16.5,2 ± 0.1,
"CC(=O)Oc1ccccc1C(=O)O [HL1, acetylsalicylic acid]",,,,,,,,"selectivity ratio at 72 h [8]: < 1; selectivity ratio at 72 h [9]: < 1; MIC [1, 13]: > 555 µM; d SI (selective index): ratio between MIC in murine macrophages and MIC in Staphylococcus aereus [1]: <1; MIC [5, 14]: > 555 µM; CC50 at 24 h [10]: 580.1 ± 1.07 µM; IC50 [11]: 8990 µM; c SI (selective index): ratio between CC50 in murine macrophages and MIC in Pseudomonas aureginosa [12]: <1"
Bis-(3-acetoxybenzoato)triphenylantimony(V) [Complex 2],2.45,12.2 ± 0.91,3.40,8.9 ± 0.36,140.6,140.6,30 ± 2.3,
"CC(=O)Oc1cccc(C(=O)O)c1 [HL2, 3-acetoxybenzoic acid]",,,,,,,,"selectivity ratio at 72 h [8]: < 1; selectivity ratio at 72 h [9]: < 1; MIC [1, 13]: > 555 µM; d SI (selective index): ratio between MIC in murine macrophages and MIC in Staphylococcus aereus [1]: <1; MIC [5, 14]: > 555 µM; CC50 at 24 h [10]: 2768 ± 9 µM; c SI (selective index): ratio between CC50 in murine macrophages and MIC in Pseudomonas aureginosa [12]: <1"
